Experimental data: paper PMC6382819, “Design strategy for serine hydroxymethyltransferase probes based on retro-aldol-type reaction” (Nature Communications, 2019)

What was measured:
hSHMT1 [1] = molecular target: T1, hSHMT1 (Homo sapiens, UniProt P34896); assay: ITC; also DSF thermal shift and HPLC Ser-Gly conversion inhibition (IC50 […]); format: binding
T1 construct: gene SHMT1
T1 sequence (P34896 2-483): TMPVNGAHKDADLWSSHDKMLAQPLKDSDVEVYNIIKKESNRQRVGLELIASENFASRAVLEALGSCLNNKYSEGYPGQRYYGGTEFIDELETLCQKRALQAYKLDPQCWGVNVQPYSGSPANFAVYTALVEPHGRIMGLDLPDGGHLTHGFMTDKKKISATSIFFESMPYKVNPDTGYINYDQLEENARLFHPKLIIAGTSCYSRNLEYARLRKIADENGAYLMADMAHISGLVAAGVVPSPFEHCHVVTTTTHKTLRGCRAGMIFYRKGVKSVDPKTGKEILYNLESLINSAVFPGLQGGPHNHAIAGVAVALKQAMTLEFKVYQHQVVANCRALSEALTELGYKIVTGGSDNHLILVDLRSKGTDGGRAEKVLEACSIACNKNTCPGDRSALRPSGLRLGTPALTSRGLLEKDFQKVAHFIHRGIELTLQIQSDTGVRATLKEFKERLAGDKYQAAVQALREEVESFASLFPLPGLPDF

hSHMT1 [2] = molecular target: T1, hSHMT1; assay: enzyme kinetics with recombinant hSHMT1 (UV absorption; […] NMR turnover); format: biochemical
hSHMT1 [3] = molecular target: T1, hSHMT1; assay: enzyme kinetics with recombinant hSHMT1 (retro-aldol turnover, fluorescence); format: biochemical

O=C(O)CCC(=O)Nc1ccc(-c2ccnc(-c3ccc(NC(=O)CCC(=O)O)cc3)n2)cc1 [Hit 1]
Kd (hSHMT1 [1]): 2000 nM

N[C@H](C(=O)O)[C@@H](O)c1ccc(F)cc1 [compound 2, 19F NMR probe 2]
Km (hSHMT1 [2]): 2750 ± 270 µM

CN(C)c1ccc2cc([C@H](O)[C@H](N)C(=O)O)ccc2c1 [compound 1, fluorescent probe 1]
Km (hSHMT1 [3]): 1810 ± 190 µM
